Laboratory results: patent US20240391940A1, “FUSED RING-CONTAINING COMPOUND, APPLICATION THEREOF, AND COMPOSITION CONTAINING SAME” (GenEros Biopharma Ltd., priority 2020, published 2024)
Several values for one entry are separate records, joined by “and”; a condition that tells them apart may be missing. Equal entries are not always repeated.

System: adjuvant arthritis (AIA) rat model
Test: Rat AIA (adjuvant arthritis) model
Type: in vivo, Lewis rats
Details: for Hind paw volume / body weight / clinical scores: 10 mg/kg daily from day 9, individual animals, 10 mg/kg

O=C(Cc1ccc2ncccc2c1)N1CCC(n2c(=O)[nH]c3cccc(C(F)(F)F)c32)CC1 [GEN1-117, 1-(1-(2-(Quinolin-6-yl)acetyl)piperidin-4-yl)-7-(trifluoromethyl)-1H-benzo[d]imidazol-2(3H)-one]
Maximum arthritis index score compared to the control rats: can effectively relieve the AIA rat arthritis disease model | Body weight change (AIA rats, GEN1-117 intervention group): gained significant weight | Increase in hind paw volume and clinical score (AIA rats, daily intraperitoneal injection): dose-dependently inhibited | Hind paw volume (AIA rats, day 9): 1.23 and 1.41 and 1.46 and 1.38 (2×) and 1.18 and 1.15 and 1.31 and 1.35 and 1.12 and 1.68 and 1.27 | body weight (AIA rats, day 9): 166 g and 154 g (2×) and 153 g (2×) and 158 g and 145 g and 169 g (2×) and 175 g and 168 g and 164 g | clinical scores (AIA rats, day 9): 0 (9×) and 0.17 and 1 (2×) | body weight (AIA rats, day 10): 156 g and 151 g and 155 g and 152 g (2×) and 143 g and 135 g and 159 g and 165 g and 158 g (3×) | Hind paw volume (AIA rats, day 11): 1.19 and 1.3 (2×) and 1.65 and 0.97 and 1.17 and 1.18 (2×) and 1.13 and 1.08 and 1.92 and 1.23 | body weight (AIA rats, day 11): 156 g and 150 g and 153 g and 152 g and 140 g and 132 g and 155 g (2×) and 164 g and 158 g and 157 g and 146 g | clinical scores (AIA rats, day 11): 0 (8×) and 0.75 and 2.5 and 1.5 and 0.5 | body weight (AIA rats, day 12): 158 g and 153 g and 154 g and 155 g and 143 g and 137 g and 159 g and 164 g and 160 g and 156 g and 162 g and 148 g | Hind paw volume (AIA rats, day 13): 1.25 (2×) and 1.93 and 2.35 and 1.08 and 1.26 (2×) and 0.84 and 1.38 and 1.03 and 2.32 and 1.28 | body weight (AIA rats, day 13): 157 g and 158 g and 155 g and 159 g and 145 g and 143 g and 161 g (2×) and 167 g and 165 g and 169 g and 149 g | clinical scores (AIA rats, day 13): 0 (7×) and 1 (2×) and 3 and 0.17 and 1.67 | body weight (AIA rats, day 14): 164 g (2×) and 160 g and 155 g and 166 g and 151 g and 150 g (2×) and 170 g (2×) and 173 g and 172 g | Hind paw volume (AIA rats, day 15): 1.27 (2×) and 2.03 and 2.2 and 1.04 and 1.1 and 1.38 and 1.08 and 1.11 and 1.26 and 2.93 and 1.66 | body weight (AIA rats, day 15): 162 g and 159 g and 151 g (2×) and 169 g and 154 g and 176 g and 174 g (2×) and 170 g and 175 g and 149 g | clinical scores (AIA rats, day 15): 0 (4×) and 2 (2×) and 5.5 and 0.17 (4×) and 3.5 | body weight (AIA rats, day 16): 165 g and 164 g and 158 g and 135 g and 156 g and 155 g and 180 g and 177 g and 179 g and 175 g and 176 g and 147 g | body weight (AIA rats, day 17): 169 g and 170 g and 152 g and 181 g | clinical scores (AIA rats, day 17): 0 (8×) and 1.83 (2×) and 5 and 3.5 | Hind paw volume (AIA rats, day 17, in mL (unit assumed)): 1.14 and 2.03 and 1.62 and 0.88 and 1.12 and 1.28 and 1.06 and 1.41 and 1.09 and 1.03 and 2.61 and 1.88 | clinical scores (AIA rats, day 19): 0 (7×) and 2.5 and 4 and 0.5 and 2 and 4.25 | Hind paw volume (AIA rats, day 19, in mL (unit assumed)): 1.42 and 3.18 and 2.26 and 1.39 and 1.25 and 1.37 and 1.26 and 1.65 and 1.28 and 1.38 and 2.43 and 2.78 | Hind paw volume (AIA rats, day 21): 1 and 3.15 and 1.95 and 1.08 (2×) and 0.86 and 1.09 and 1.33 and 1.04 and 1.14 and 2.65 and 2.14 | clinical scores (AIA rats, day 21): 0 (7×) and 2.67 and 5.33 and 0.5 and 2 and 4.17 | Hind paw volume (AIA rats, day 23): 0.99 and 3.36 and 2.21 and 1.25 and 0.88 and 0.93 and 0.96 and 1.26 and 1.08 (2×) and 2.87 and 1.89 | clinical scores (AIA rats, day 23): 0 (7×) and 3 and 4 (2×) and 0.5 and 2.5 | Clinical scores compared to the control rats (days 13-23): significant reductions in clinical scores | Hind paw volume compared to the control rats (days 17-23): significantly decreased
